Experimental data: patent US9751854B2 (Millennium Pharmaceuticals, Inc., priority 2014, dated 2017)

Biological target: human VPS34 (Homo sapiens (Human), UniProt Q8NEB9)
Assay: Human VPS34 enzyme assay (Adapta TR-FRET ADP detection)
Type: biochemical
Design: Percent Inhibition: dose or concentration left out as unconfirmed
Details: for IC50: IC50 range class

human VPS34, sequence (Q8NEB9 whole entry): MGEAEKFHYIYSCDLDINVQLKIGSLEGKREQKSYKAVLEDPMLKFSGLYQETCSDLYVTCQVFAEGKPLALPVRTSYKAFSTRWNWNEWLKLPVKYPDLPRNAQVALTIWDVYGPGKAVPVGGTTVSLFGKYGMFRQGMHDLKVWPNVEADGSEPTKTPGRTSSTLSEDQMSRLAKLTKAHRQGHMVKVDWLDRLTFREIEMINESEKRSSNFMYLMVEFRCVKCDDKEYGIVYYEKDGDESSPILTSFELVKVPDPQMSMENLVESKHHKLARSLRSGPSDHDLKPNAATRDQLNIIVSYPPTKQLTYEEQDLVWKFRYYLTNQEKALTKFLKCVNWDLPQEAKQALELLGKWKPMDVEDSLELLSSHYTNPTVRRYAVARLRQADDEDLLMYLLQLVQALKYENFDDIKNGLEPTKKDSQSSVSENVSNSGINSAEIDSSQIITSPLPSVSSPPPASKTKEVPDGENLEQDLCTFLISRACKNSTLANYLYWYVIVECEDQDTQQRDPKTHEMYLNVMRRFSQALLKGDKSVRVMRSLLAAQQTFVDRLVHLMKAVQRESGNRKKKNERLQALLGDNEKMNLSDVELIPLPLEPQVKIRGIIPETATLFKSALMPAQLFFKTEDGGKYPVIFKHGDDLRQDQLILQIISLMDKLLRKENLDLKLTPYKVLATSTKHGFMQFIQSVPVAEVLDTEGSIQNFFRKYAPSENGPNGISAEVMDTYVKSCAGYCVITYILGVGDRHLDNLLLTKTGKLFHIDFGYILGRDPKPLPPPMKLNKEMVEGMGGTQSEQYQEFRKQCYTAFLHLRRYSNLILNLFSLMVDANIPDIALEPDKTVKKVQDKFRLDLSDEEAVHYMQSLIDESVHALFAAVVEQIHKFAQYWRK

Compound	IC50	Percent Inhibition
CC(=O)Nc1cc(-c2ccc(S(=O)(=O)Nc3cc(-c4ccnc(NC(C)=O)c4)cnc3C)c(F)c2)ccn1 [Compound I-86, N-(4-{4-[(2′-acetamido-6-methyl-3,4′-bipyridin-5-yl)sulfamoyl]-3-fluorophenyl}pyridin-2-yl)acetamide]	< 10 nM	–
COc1ncc(-c2ccnc(NC(C)=O)c2)cc1C(=O)N(C)c1ccc(F)cc1F [Compound I-423, 2′-aceramido-N-(2,4-difluorophenyl)-6-methoxy-N-methyl-3,4′-bipyridine-5-carboxamide]	10 to 50 nM	–
COc1ncc(-c2ccnc(NC(C)=O)c2)cc1S(=O)(=O)Nc1cccc(C(F)(F)F)c1 [Compound I-329, N-(6-methoxy-5-{[3-(trifluoromethyl)phenyl]sulfamoyl}-3,4′-bipyridin-2′-yl)acetamide]	10 to 50 nM	–
Cc1c(-c2ccnc(Nc3ccnc(C4CC4)n3)c2)cnc(Cl)c1C(=O)O [Compound I-369, 6-chloro-2′-((2-cyclopropylpyrimidin-4-yl)amino)-4-methyl-[3,4′-bipyridine]-5-carboxylic acid]	10 to 50 nM	–
COc1ncc(-c2ccnc(NC(C)=O)c2)cc1S(=O)(=O)Nc1ccc(Cl)cc1Cl [Compound I-344]	10 to 50 nM	–
CC(=O)Nc1cc(-c2cncc(NC(=O)Cc3ccccc3)c2)ccn1 [Compound I-106, N-(2′-acetamido-3,4′-bipyridin-5-yl)-2-phenylacetamide]	> 100 nM	–
Cc1ncc(-c2ccnc(Nc3ccccn3)c2)cc1NS(=O)(=O)c1ccc(F)cc1F [Compound I-297, 2,4-difluoro-N-[6-methyl-2′-(pyridin-2-ylamino)-3,4′-bipyridin-5-yl]benzenesulfonamide]	10 to 50 nM	–
CNc1ncc(-c2ccnc(Nc3ccncn3)c2)cc1C(=O)N(C)C12CC(C1)C2 [Compound I-222, N-(bicyclo[1.1.1]pent-1-yl)-N-methyl-6-(methylamino)-2′-(pyrimidin-4-ylamino)-3,4′-bipyridine-5-carboxamide]	10 to 50 nM	–
COc1ncc(-c2ccnc(NC(C)=O)c2)cc1N(C)C(=O)c1ccc(F)cc1F [Compound I-331, N-(2′-acetamido-6-methoxy-3,4′-bipyridin-5-yl)-2,4-difluoro-N-methylbenzamide]	> 100 nM	–
CC(=O)Nc1cc(-c2cnc(F)c(NS(=O)(=O)c3ccc(F)cc3F)c2)ccn1 [Compound I-164, N-(5-{[(2,4-difluorophenyl)sulfonyl]amino}-6-fluoro-3,4′-bipyridin-2′-yl)acetamide]	< 10 nM	–
Cc1ncc(-c2ccnc(NC(=O)N3CCCC3)c2)cc1NS(=O)(=O)c1ccc(F)cc1F [Compound I-313, N-(5-{[(2,4-difluorophenyl)sulfonyl]amino}-6-methyl-3,4′-bipyridin-2′-yl)pyrrolidine-1-carboxamide]	10 to 50 nM	–
COc1ncc(-c2ccnc(NC(C)=O)c2)cc1S(=O)(=O)Nc1cc(F)ccc1F [Compound I-358, N-{5-[(2,5-difluorophenyl)sulfamoyl]-6-methoxy-3,4′-bipyridin-2′-yl}acetamide]	10 to 50 nM	–
COc1cc(F)ccc1S(=O)(=O)Nc1cc(-c2ccnc(NC(C)=O)c2)cnc1C [Compound I-58, N-(5-{[(4-fluoro-2-methoxyphenyl)sulfonyl]amino}-6-methyl-3,4′-bipyridin-2′-yl)acetamide]	< 10 nM	–
CC(=O)Nc1cc(-c2cnc(C)c(NS(=O)(=O)c3ccc(F)cc3F)c2)c(C)cn1 [Compound I-177, N-(5-{[(2,4-difluorophenyl)sulfonyl]amino}-5′,6-dimethyl-3,4′-bipyridin-2′-yl)acetamide]	10 to 50 nM	–
CC(=O)Nc1cc(-c2cnc(C)c(NS(=O)(=O)c3ccc(F)cc3Cl)c2)ccn1 [Compound I-206, N-(5-{[(2-chloro-4-fluorophenyl)sulfonyl]amino}-6-methyl-3,4′-bipyridin-2′-yl)acetamide]	< 10 nM	–
Cc1ncc(-c2ccnc(NC(=O)C3CC3(F)F)c2)cc1NS(=O)(=O)c1ccc(Cl)cc1F (stereo not drawn) [Compound I-441, N-(5-{[(4-chloro-2-fluorophenyl)sulfonyl]amino}-6-methyl-3,4′-bipyridin-2′-yl)-2,2-difluorocyclopropanecarboxamide]	< 10 nM	–
Cc1nccc(Nc2cc(-c3cnc(C)c(OCc4ccccc4)c3)ccn2)n1 [Compound I-363, 5-(benzyloxy)-6-methyl-N-(2-methylpyrimidin-4-yl)-3,4′-bipyridin-2′-amine]	> 100 nM	–
Cc1c(-c2ccnc(Nc3ccnc(C4CC4)n3)c2)cnc(Cl)c1N [Compound I-355, 6-chloro-N-2-′-(2-cyclopropylpyrimidin-4-yl)-4-methyl-3,4′-bipyridine-2′,5-diamine]	10 to 50 nM	–
Cc1ncc(-c2ccnc(Nc3nc4ccccc4o3)c2)cc1NS(=O)(=O)c1ccc(F)cc1F [Compound I-233, N-[2′-(1,3-benzoxazol-2-ylamino)-6-methyl-3,4′-bipyridin-5-yl}2,4-difluorobenzenesulfonamide]	10 to 50 nM	–
Cc1ncc(-c2ccnc(-n3cnc4c(C)nccc43)c2)cc1NS(=O)(=O)N(C)C [Compound I-263, N,N-dimethyl-N′-[6-methyl-2′-(4-methyl-1H-imidazol[4,5-c]pyridin-1-yl)-3,4′-bipyridin-5-yl]sulfuric diamide]	> 100 nM	–
CC(=O)Nc1cc(-c2cnc(C)c(NS(=O)(=O)c3cccc(Cl)c3Cl)c2)ccn1 [Compound I-342, N-(5-{[(2,3-dichlorophenyl)sulfonyl]amino}-6-methyl-3,4′-bipyridin-2′-yl)acetamide]	< 10 nM	>99%
Cc1nc(Nc2cc(-c3cnc(C)c(NS(=O)(=O)c4ccc(F)cc4F)c3)ccn2)ccc1C#N [Compound I-289, N-{2′-[(5-cyano-6-methylpyridin-2-yl)amino]-6-methyl-3,4′-bipyridin-5-yl}-2,4-difluorobenzenesulfonamide]	< 10 nM	–

More lines, now with the values ahead:

IC50	Percent Inhibition	Compound
10 to 50 nM	–	CC(=O)Nc1cc(-c2cnc(N)c(C(=O)N3CCCC3)c2)ccn1 [Compound I-15, N-[6-amino-5-(pyrrolidin-1-ylcarbonyl)-3,4′-bipyridin-2′-yl]acetamide]
< 10 nM	–	COC(=O)Nc1cc(-c2cnc(N)c(S(=O)(=O)C(C)C)c2)ccn1 [Compound I-34, methyl [6-amino-5-(isopropylsulfonyl)-3,4′-bipyridin-2′-yl]carbamate]
< 10 nM	–	CC(=O)Nc1cc(-c2cnc(N)c(N3CCCS3(=O)=O)c2)ccn1 [Compound I-181, N-[6-amino-5-(1,1-dioxidoisothiazolidin-2-yl)-3,4′-bipyridin-2′-yl]acetamide]
< 10 nM	–	COC(=O)Nc1cc(-c2cnc(N)c(C(=O)N(C)C)c2)ccn1 [Compound I-55, methyl [6-amino-5-(dimethylcarbamoyl)-3,4′-bipyridin-2′-yl]carbamate]
50 to 100 nM	–	CC(=O)Nc1cc(-c2cncc(N(CC3CC3)S(C)(=O)=O)c2)ccn1 [Compound I-202, N-{5-[(cyclopropylmethyl)(methylsulfonyl)amino]-3,4′-bipyridin-2′-yl}acetamide]
> 100 nM	–	CC(=O)Nc1cc(-c2cnc(NCC3CC3)c(N)c2)ccn1 [Compound I-53, N-{5-amino-6-{(cyclopropylmethyl)amino]-3,4′-bipyridin-2′-yl}acetamide]
10 to 50 nM	–	CC(=O)Nc1cc(-c2cnc(C)c(NS(C)(=O)=O)c2)ccn1 [Compound I-167, N-{6-methyl-5-[(methylsulfonyl)amino]-3,4′-bipyridin-2′-yl}acetamide]
< 10 nM	–	CC(=O)Nc1cc(-c2cnc(C)c(NS(=O)(=O)c3ccccc3Cl)c2)ccn1 [Compound I-109, N-(5-{[(2-chlorophenyl)sulfonyl]amino]-6-methyl-3,4′-bipyridin-2′-yl)acetamide]
< 10 nM	–	CC(=O)Nc1cc(-c2cnc(N)c(N3CCCNS3(=O)=O)c2)ccn1 [Compound I-490, N-[6-amino-5-(1,1-dioxido-1,2,6-thiadiazinan-2-yl)-3,4′-bipyridin-2′-yl]acetamide]
< 10 nM	–	CNc1ncc(-c2ccnc(NC(C)=O)c2)cc1S(=O)(=O)N(C(C)C)C(C)C [Compound I-173, N-[5-(diisopropylsulfamoyl)-6-(methylamino)-3,4′-bipyridin-2′-yl]acetamide]
10 to 50 nM	–	CC(=O)Nc1cc(-c2cnc(C)c(N3CC=CS3(=O)=O)c2)ccn1 [Compound I-416, N-[5-(1,1-dioxidoisothiazol-2(3H)-yl)-6-methyl-3,4′-bipyridin-2′-yl]acetamide]
10 to 50 nM	>99%	CC(=O)Nc1cc(-c2cnc(C)c(NS(=O)(=O)N3CC4CCC3C4)c2)ccn1 (stereo not drawn) [Compound I-445, N-{5-[(2-azabicyclo[2.2.1]hept-2-ylsulfonyl)amino]-6-methyl-3,4′-bipyridin-2′-yl}acetamide]
10 to 50 nM	–	CC(=O)Nc1cc(-c2cnc(N)c(C(=O)NC3CC3)c2)ccn1 [Compound I-169, 2′-acetamido-6-amino-N-cyclopropyl-3,4′-bipyridine-5-carboxamide]
< 10 nM	–	CC(=O)Nc1cc(-c2cnc(C)c(NS(=O)(=O)c3ccc(F)cc3)c2)ccn1 [Compound I-185, N-(5-{[(4-fluorophenyl)sulfonyl]amino}-6-methyl-3,4′-bipyridin-2′-yl)acetamide]
10 to 50 nM	–	CC(=O)Nc1cc(-c2cnc(C)c(NS(=O)(=O)N3CCC3)c2)ccn1 [Compound I-257, N-{5-[(azetidin-1-ylsulfonyl)amino]-6-methyl-3,4′-bipyridin-2′-yl}acetamide]
10 to 50 nM	–	CC(=O)Nc1cc(-c2cnc3ccn(S(C)(=O)=O)c3c2)ccn1 [Compound I-33, N-{4-[1-(methylsulfonyl)-1H-pyrrolo[3,2-b]pyridin-6-yl]pyridin-2-yl}acetamide]
< 10 nM	–	CC(=O)Nc1cc(-c2cnc3[nH]cc(S(=O)(=O)N(C)C)c3c2)ccn1 [Compound I-40, N-{4-[3-(dimethylsulfamoyl)-1H-pyrrolo[2,3-b]pyridin-5-yl]pyridin-2-yl}acetamide]
50 to 100 nM	–	CC(=O)Nc1cc(-c2cnc(C)c(N3CCNS3(=O)=O)c2)ccn1 [Compound I-352, N-[5-(1,1-dioxido-1,2,5-thiadiazolidin-2-yl)-6-methyl-3,4′-bipyridin-2′-yl]acetamide]
